Experiments:
Assay in all cases: relative viability (nuclei count vs DMSO), 5 days (fraction); higher = more cells survive
Avagacestat + Dasatinib = compound: NC(=O)[C@@H](CCC(F)(F)F)N(Cc1ccc(-c2ncon2)cc1F)S(=O)(=O)c1ccc(Cl)cc1 [Avagacestat] + Cc1nc(Nc2ncc(C(=O)Nc3c(C)cccc3Cl)s2)cc(N2CCN(CCO)CC2)n1 [Dasatinib] (partner 0.075 µM)
Method in brief: (§1)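 Medians of duplicate plates are given as relative viability. That measure is the nuclei count in treated wells divided by the count in vehicle wells. Counts were taken on 4× images of lung cancer cell lines in 1536-well plates, 5 days after pin-tool dosing the day after seeding with one drug alone or a fixed anchor-drug dose plus five library-drug doses (not always all listed) in √10 steps.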

Avagacestat + Pictilisib = compound: NC(=O)[C@@H](CCC(F)(F)F)N(Cc1ccc(-c2ncon2)cc1F)S(=O)(=O)c1ccc(Cl)cc1 [Avagacestat] + CS(=O)(=O)N1CCN(Cc2cc3nc(-c4cccc5[nH]ncc45)nc(N4CCOCC4)c3s2)CC1 [Pictilisib] (partner 1 µM)
Method in brief: as §1

Avagacestat + Crizotinib = compound: NC(=O)[C@@H](CCC(F)(F)F)N(Cc1ccc(-c2ncon2)cc1F)S(=O)(=O)c1ccc(Cl)cc1 [Avagacestat] + C[C@@H](Oc1cc(-c2cnn(C3CCNCC3)c2)cnc1N)c1c(Cl)ccc(F)c1Cl [Crizotinib] (partner 1 µM)
Method in brief: as §1

Avagacestat + Vorinostat = compound: NC(=O)[C@@H](CCC(F)(F)F)N(Cc1ccc(-c2ncon2)cc1F)S(=O)(=O)c1ccc(Cl)cc1 [Avagacestat] + O=C(CCCCCCC(=O)Nc1ccccc1)NO [Vorinostat] (partner 1 µM)
Method in brief: as §1

| Cell Line | relative viability (Avagacestat + Dasatinib; first compound 0.08 µM) | relative viability (Avagacestat + Dasatinib; first compound 0.253 µM) | relative viability (Avagacestat + Dasatinib; first compound 0.8 µM) | relative viability (Avagacestat + Dasatinib; first compound 2.53 µM) | relative viability (Avagacestat + Dasatinib; first compound 8 µM) | relative viability (Avagacestat + Pictilisib; first compound 0.08 µM) | relative viability (Avagacestat + Pictilisib; first compound 0.253 µM) | relative viability (Avagacestat + Pictilisib; first compound 0.8 µM) | relative viability (Avagacestat + Pictilisib; first compound 2.53 µM) | relative viability (Avagacestat + Pictilisib; first compound 8 µM) | relative viability (Avagacestat + Crizotinib; first compound 0.08 µM) | relative viability (Avagacestat + Crizotinib; first compound 0.253 µM) | relative viability (Avagacestat + Crizotinib; first compound 0.8 µM) | relative viability (Avagacestat + Crizotinib; first compound 2.53 µM) | relative viability (Avagacestat + Crizotinib; first compound 8 µM) | relative viability (Avagacestat + Vorinostat; first compound 0.08 µM) | relative viability (Avagacestat + Vorinostat; first compound 0.253 µM) | relative viability (Avagacestat + Vorinostat; first compound 0.8 µM) | relative viability (Avagacestat + Vorinostat; first compound 2.53 µM) | relative viability (Avagacestat + Vorinostat; first compound 8 µM) |
| --- | --- | --- | --- | --- | --- | --- | --- | --- | --- | --- | --- | --- | --- | --- | --- | --- | --- | --- | --- | --- |
| HCC-78 | 0.452 | 0.273 | 0.343 | 0.327 | 0.331 | 0.179 | 0.222 | 0.244 | 0.192 | 0.235 | 0.322 | 0.343 | 0.338 | 0.322 | 0.314 | 0.499 | 0.458 | 0.416 | 0.391 | 0.351 |
| HCC-366 | 0.842 | 0.981 | 0.676 | 0.544 | 0.601 | 0.137 | 0.36 | 0.0944 | 0.082 | 0.132 | 0.608 | 0.645 | 0.517 | 0.525 | 0.645 | 0.472 | 0.426 | 0.437 | 0.31 | 0.385 |
| HCC-827 | 0.313 | 0.277 | 0.226 | 0.184 | 0.244 | 1.13 | 1.08 | 0.797 | 0.941 | 0.897 | 0.868 | 0.85 | 0.992 | 1.03 | 0.999 | 0.75 | 0.849 | 0.855 | 0.946 | 0.832 |
| HOP-62 | 0.701 | 0.63 | 0.626 | 0.502 | 0.484 | 0.825 | 0.778 | 0.525 | 0.573 | 0.857 | 0.936 | 1.08 | 0.995 | 1.05 | 1.03 | 0.822 | 0.667 | 0.65 | 0.588 | 0.564 |
| IA-LM | – | – | – | – | – | 1.1 | 1.02 | 0.711 | 0.802 | 0.525 | 1.98 | 1.36 | 1.09 | 0.879 | 1.1 | 1.56 | 1.59 | 1.51 | 0.957 | 0.992 |
| LC-2-ad | 0.558 | 0.489 | 0.646 | 0.447 | 0.343 | 0.569 | 0.41 | 0.518 | 0.382 | 0.269 | 0.548 | 0.367 | 0.458 | 0.435 | 0.391 | 0.73 | 0.847 | 0.74 | 0.654 | 0.595 |
| LCLC-97TM1 | 0.945 | 0.86 | 0.757 | 0.866 | 0.706 | 0.184 | 0.138 | 0.139 | 0.181 | 0.145 | 0.317 | 0.289 | 0.301 | 0.241 | 0.397 | 1.01 | 0.847 | 0.862 | 0.838 | 0.57 |
| LCLC-103H | 0.456 | 0.46 | 0.508 | 0.368 | 0.678 | 0.629 | 0.533 | 0.572 | 0.58 | 0.509 | 1.03 | 1.09 | 1.01 | 0.967 | 0.831 | 0.807 | 0.759 | 0.846 | 0.864 | 0.673 |
| LK-2 | 0.26 | 0.224 | 0.247 | 0.271 | 0.267 | 0.653 | 0.76 | 0.429 | 0.473 | 0.541 | 0.241 | 0.206 | 0.249 | 0.282 | 0.235 | 0.196 | 0.353 | 0.265 | – | 0.22 |
| LOU-NH91 | 0.612 | 0.509 | 0.618 | 0.443 | 0.493 | 0.491 | 0.475 | 0.559 | 0.515 | 0.498 | 0.739 | 0.725 | 0.732 | 0.73 | 0.761 | 1 | 0.878 | 1.03 | 0.798 | 0.885 |
| LU99A | 0.483 | 0.542 | 0.455 | 0.444 | 0.471 | 0.282 | 0.325 | 0.341 | 0.277 | 0.307 | 0.521 | 0.646 | 0.571 | 0.595 | 0.628 | 0.611 | 0.541 | 0.624 | 0.468 | 0.481 |
| NCI-H522 | 0.942 | 0.886 | 0.861 | 0.927 | 1.07 | – | – | – | – | – | – | – | – | – | – | 1.04 | 1.01 | 0.928 | 0.866 | 0.792 |
| NCI-H1299 | – | – | – | – | – | 0.806 | 1.19 | 0.81 | 0.736 | 0.578 | 1.01 | 1.05 | 0.952 | 0.98 | 0.91 | – | – | – | – | – |
| NCI-H1395 | 0.412 | 0.405 | 0.416 | 0.372 | 0.442 | 0.601 | 0.735 | 0.658 | 0.488 | 0.702 | – | – | – | – | – | 0.64 | 0.519 | 0.719 | 0.429 | 0.63 |
| NCI-H1563 | 0.53 | 0.455 | 0.484 | 0.453 | 0.442 | 0.708 | 0.629 | 0.621 | 0.664 | 0.634 | 0.883 | 0.751 | 0.83 | 0.801 | 0.708 | – | – | – | – | – |
| NCI-H1648 | – | – | – | – | – | – | – | – | – | – | – | – | – | – | – | 0.512 | 0.374 | 0.31 | 0.35 | 0.276 |
| NCI-H1703 | – | – | – | – | – | 0.305 | 0.242 | 0.226 | 0.217 | 0.225 | 0.975 | 0.777 | 0.864 | 0.587 | 0.581 | – | – | – | – | – |
| NCI-H1792 | 1.33 | – | 0.666 | – | 0.706 | 0.252 | 0.315 | 0.264 | 0.24 | 0.21 | 1.42 | 1.33 | 1.45 | 0.992 | 0.805 | – | – | – | – | – |
| NCI-H1793 | 0.445 | 0.383 | 0.319 | 0.282 | 0.337 | 0.381 | 0.325 | 0.326 | 0.413 | 0.27 | – | – | – | – | – | 0.841 | 0.985 | 0.773 | 0.865 | 0.993 |
| NCI-H2342 | 0.344 | 0.341 | 0.334 | 0.31 | 0.302 | – | – | – | – | – | – | – | – | – | – | 0.845 | 0.822 | 0.842 | 0.705 | 0.774 |
